# In PMC9655037, “Alternation of Organ-Specific Exposure in LPS-Induced Pneumonia Mice after the Inhalation of Tetrandrine Is Governed by Metabolizing Enzyme Suppression and Lysosomal Trapping” (International Journal of Molecular Sciences, 2022):
# How the values were obtained:
# [1] = system: CYP3a; test: CYP3a probe substrate turnover in microsomes from normal and LPS-treated mice; type: in vitro ADME, mouse; conditions: microsomes of LPS-treated vs normal mice, Figure 4A
# [2] = Bidirectional transport in MOCK LLC-PK1 cells; conditions: pig
# Procedure: (§1) MDR1 expressing LLC-PK1 cells or MOCK LLC-PK1 cells were utilized to identify whether P-gp is involved in the efflux transport across the membrane barrier. Cells were cultured as described above. Cells were seeded at a density of 2 × 10^4 in Millicell® 24-well cell culture plates with a 6.5 mm insert (0.4 µm polycarbonate membrane) from Corning (Kennebunk, ME, USA) 7 days before the experiments. On the day of the experiment, transepithelial electrical resistance (TEER) was measured to assess monolayer integrity. After washing the cells twice with HBSS, transport experiments in either the apical-to-basolateral direction (A-B) or the basolateral-to-apical direction (B-A) were conducted. […] After incubating the plates at 37 °C for 2 h, samples from the receiving and donor wells (50 μL) were taken simultaneously. All the samples were stored at −40 °C for LC-MS/MS analysis.
# (§2) In the bidirectional transport study in LLC-PK1 cells, the following equations were used to calculate Papp values and the MDR1 efflux ratio.
# [3] = target: MDR1 (Homo sapiens, UniProt P08183); test: Bidirectional transport in MDR1-transfected LLC-PK1 cells; conditions: MDR1-transfected; 2 μM TET, 10 μM metoprolol, 10 μM atenolol, 2 μM digoxin; TAR 5 μM where stated; 2 h, 37 °C
# Procedure: as §1, §2
# [4] = target: MDR1 (P-gp) (Homo sapiens, UniProt P08183); test: as above
# Procedure: as §1, §2
# [5] = system: HEK293-MOCK cells; test: Uptake by MOCK (empty vector) HEK293 cells; conditions: positive control 20 μM, 10 min
# Procedure: (§3) Expressing OATP1B1/OATP1B3 or MOCK HEK293 cells were utilized to evaluate whether TET is a substrate of these two SLC transporters. Cell culture was performed as mentioned above. Cells were seeded on 96-well plates at the density of 0.8 × 10^5 cells/well. The culture medium was replaced with a medium containing 5 mM sodium butyrate for 24 h before the transport study to enhance the expression of transporters. For the transport assay, the DMEM media were removed and the cells were washed with pre-warmed Krebs–Henseleit buffer twice (0.1 mL/well). The second washing buffer was kept in the wells and the plate was incubated at 37 °C for 5 min before the uptake assay was initiated. […] The incubation solution was removed and the cells were washed with ice-cold transportation buffer three times (0.1 mL/well). A total of 0.1 mL pure water was added to each well to lyse the cells by repeated freezing and thawing (−196 °C–37 °C, three times). The cell lysate was collected and stored at −40 °C for LC-MS/MS analysis and protein measurement.
# (§4) In the uptake study of TET by OATP1B1 and OATP1B3 expressing the HEK293 cell line, the uptake clearance (U) of the substrate was calculated according to Equation (5), the transporter-mediated uptake ratio (UR) was calculated by dividing the uptake clearance from transporter-expressing cells to that from the mock cells according to Equation (6), and the inhibition ratio (IR) was calculated according to Equation (7), where p represents the protein content and T is the duration of the incubation time. (5) U=Clysate/p×T (6) UR=U/UMOCK (7) IR=(1−Uwith inhibitor−Umock with inhibitor/Uwithout inhibitor−Umock without inhibitor)×100
# [6] = target: T1, OATP1B3 (Homo sapiens, UniProt Q9NPD5); test: Uptake by OATP1B3-expressing HEK293 cells; conditions: positive control 20 μM, 10 min
# T1 sequence (Q9NPD5 1-702): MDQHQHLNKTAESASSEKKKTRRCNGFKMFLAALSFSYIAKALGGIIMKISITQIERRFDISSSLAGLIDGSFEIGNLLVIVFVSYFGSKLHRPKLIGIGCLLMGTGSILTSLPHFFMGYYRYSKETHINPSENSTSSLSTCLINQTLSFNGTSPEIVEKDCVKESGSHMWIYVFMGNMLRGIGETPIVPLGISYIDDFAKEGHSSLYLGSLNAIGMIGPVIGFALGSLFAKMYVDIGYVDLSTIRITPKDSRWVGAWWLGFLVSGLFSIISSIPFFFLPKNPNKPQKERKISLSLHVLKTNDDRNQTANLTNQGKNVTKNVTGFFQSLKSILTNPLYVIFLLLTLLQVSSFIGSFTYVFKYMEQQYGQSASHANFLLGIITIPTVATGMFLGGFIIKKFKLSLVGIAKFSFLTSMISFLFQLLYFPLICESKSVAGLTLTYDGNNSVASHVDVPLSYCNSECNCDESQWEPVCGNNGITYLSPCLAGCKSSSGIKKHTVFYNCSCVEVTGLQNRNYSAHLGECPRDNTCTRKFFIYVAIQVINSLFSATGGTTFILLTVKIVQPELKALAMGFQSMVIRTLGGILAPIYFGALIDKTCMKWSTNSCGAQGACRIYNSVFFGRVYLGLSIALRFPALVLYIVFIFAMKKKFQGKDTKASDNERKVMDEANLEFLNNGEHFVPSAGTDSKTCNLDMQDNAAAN
# Procedure: as §3, §4
# MDR1 (P-gp), sequence (P08183 whole entry): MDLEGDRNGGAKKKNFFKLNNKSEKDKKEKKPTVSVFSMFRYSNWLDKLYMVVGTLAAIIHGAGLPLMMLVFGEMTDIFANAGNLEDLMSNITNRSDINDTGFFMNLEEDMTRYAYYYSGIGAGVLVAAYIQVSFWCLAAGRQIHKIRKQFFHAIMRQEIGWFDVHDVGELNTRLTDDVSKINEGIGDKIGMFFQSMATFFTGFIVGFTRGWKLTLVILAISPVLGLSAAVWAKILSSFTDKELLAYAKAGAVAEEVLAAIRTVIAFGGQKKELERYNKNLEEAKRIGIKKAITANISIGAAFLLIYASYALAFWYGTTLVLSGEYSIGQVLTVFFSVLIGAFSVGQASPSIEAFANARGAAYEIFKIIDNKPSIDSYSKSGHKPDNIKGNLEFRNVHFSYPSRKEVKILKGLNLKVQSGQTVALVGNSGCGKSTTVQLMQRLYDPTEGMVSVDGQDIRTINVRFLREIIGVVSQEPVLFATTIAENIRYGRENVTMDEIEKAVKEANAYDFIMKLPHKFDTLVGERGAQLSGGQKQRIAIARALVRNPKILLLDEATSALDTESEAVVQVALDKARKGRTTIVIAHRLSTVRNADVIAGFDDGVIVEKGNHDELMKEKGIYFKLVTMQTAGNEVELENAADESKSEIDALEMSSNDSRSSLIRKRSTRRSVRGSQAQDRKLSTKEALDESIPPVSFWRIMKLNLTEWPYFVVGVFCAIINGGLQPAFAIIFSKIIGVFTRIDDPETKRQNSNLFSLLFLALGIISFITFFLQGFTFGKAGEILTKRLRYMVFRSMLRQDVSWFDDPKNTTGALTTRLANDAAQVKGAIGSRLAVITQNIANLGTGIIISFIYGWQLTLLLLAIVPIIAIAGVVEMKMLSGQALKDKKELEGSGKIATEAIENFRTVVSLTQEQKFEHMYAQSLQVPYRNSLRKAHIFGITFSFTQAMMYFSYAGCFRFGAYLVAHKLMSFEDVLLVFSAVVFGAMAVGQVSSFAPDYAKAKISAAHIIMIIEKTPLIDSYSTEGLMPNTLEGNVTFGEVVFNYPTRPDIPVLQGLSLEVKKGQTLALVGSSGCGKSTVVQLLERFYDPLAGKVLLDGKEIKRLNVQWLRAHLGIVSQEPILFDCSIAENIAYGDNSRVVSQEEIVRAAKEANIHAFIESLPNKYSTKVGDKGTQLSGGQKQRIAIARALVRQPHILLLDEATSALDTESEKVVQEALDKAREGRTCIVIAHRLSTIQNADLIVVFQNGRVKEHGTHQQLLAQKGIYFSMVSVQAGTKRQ
# MDR1, sequence (P08183 whole entry): as above
compound,measurement,setting,value
Cc1ncc2n1-c1ccc(Cl)cc1C(c1ccccc1F)=NC2 [midazolam],1′-hydroxylation reaction lowered by LPS-induced pneumonia,[1]; at 24 h,~ 2.55 fold
"C[C@H]1O[C@@H](O[C@H]2[C@@H](O)C[C@H](O[C@H]3[C@@H](O)C[C@H](O[C@H]4CC[C@@]5(C)[C@H](CC[C@@H]6[C@@H]5C[C@@H](O)[C@]5(C)[C@@H](C7=CC(=O)OC7)CC[C@]65O)C4)O[C@@H]3C)O[C@@H]2C)C[C@H](O)[C@@H]1O [Digoxin, digoxin]",Papp A→B at 2 h,[2],2.25 ± 0.26 ×10⁻⁶ cm/s
same,Papp B→A at 2 h,[2],1.74 ± 0.2 ×10⁻⁶ cm/s
same,efflux ratio at 2 h,[2],0.77
same,Papp A-B,[3],"0.98 ± 0.11 **^,##"
same,Papp B-A,[3],"11.27 ± 0.77 **^,##"
same,efflux ratio at 2 h,"[4]; human, LLC-PK1",11.5
C[C@]12CC[C@H]3[C@@H](CCC4=CC(=O)CC[C@@]43C)[C@@H]1CC[C@@H]2O [testosterone],change of 6-β-hydroxylation reaction under inflammation state (no obvious alternation),[1],~ 1.14 fold
"C[C@]12CC[C@@H]3c4ccc(O)cc4CC[C@H]3[C@@H]1CC[C@@H]2O[C@@H]1O[C@H](C(=O)O)[C@@H](O)[C@H](O)[C@H]1O [Positive Control, 17β-estradiol-17β-D-glucuronide]",Uptake Clearance,[5]; MOCK (OATP1B1 set),2.4 ± 0.03 nM/min/mg Protein
same,Uptake Clearance,[5]; MOCK (OATP1B3 set),2.7 ± 0.07 nM/min/mg Protein
same,Uptake Clearance,[5]; MOCK+RIF (OATP1B1 set),2.63 ± 0.08 nM/min/mg Protein
same,Uptake Clearance,[5]; MOCK+RIF (OATP1B3 set),2.73 ± 0.08 nM/min/mg Protein
same,Uptake Clearance,[6]; OATP1B3+RIF,3.66 ± 0.03 nM/min/mg Protein
same,Uptake Clearance,[6]; OATP1B3 cells,"30.0 ± 1.46 **^, ## nM/min/mg Protein"
"COCCc1ccc(OCC(O)CNC(C)C)cc1 (centres unmarked) [Metoprolol, metoprolol]",Papp A→B at 2 h,[2],32.2 ± 2.8 ×10⁻⁶ cm/s
same,Papp B→A at 2 h,[2],25 ± 0.3 ×10⁻⁶ cm/s
same,efflux ratio at 2 h,[2],0.7
same,Papp A→B at 2 h,[4],28.2 ± 0.65 ×10⁻⁶ cm/s
same,Papp B→A at 2 h,"[4]; human, LLC-PK1",28.3 ± 2.07 ×10⁻⁶ cm/s
same,efflux ratio at 2 h,"[4]; human, LLC-PK1",1
